# In ChEMBL document CHEMBL3885881, “DrugMatrix”:
# Species on record: Rattus norvegicus
# Test: DrugMatrix - Regimen: Daily Repeat
# Format: toxicity, organism-based, Sprague-Dawley
# Set-up: regimen Daily Repeat, gender Male, age 6-8 weeks
# Details: in vivo, po, route oral GAVAGE, vehicle 100 % WATER; for ABSOLUTE BASOPHIL / ABSOLUTE EOSINOPHIL / ABSOLUTE LYMPHOCYTE / ABSOLUTE MONOCYTE / ABSOLUTE SEGMENTED NEUTROPHIL / BASOPHIL / EOSINOPHIL / ERYTHROCYTE COUNT / HEMATOCRIT / HEMOGLOBIN / LEUKOCYTE COUNT / LYMPHOCYTE / MEAN CORPUSCULAR HEMOGLOBIN / MEAN CORPUSCULAR HEMOGLOBIN CONCENTRATION / MEAN CORPUSCULAR VOLUME / MONOCYTE / NEUTROPHIL / NUCLEATED RED BLOOD CELLS / PLATELET COUNT: tissue Blood; for ALANINE AMINOTRANSFERASE / ALBUMIN / ALKALINE PHOSPHATASE / ASPARTATE AMINOTRANSFERASE / BLOOD UREA NITROGEN / CARBON DIOXIDE / CHLORIDE / CHOLESTEROL / CREATINE PHOSPHOKINASE / CREATININE / GLUCOSE / LACTATE DEHYDROGENASE / LIPASE / PHOSPHORUS / POTASSIUM / SODIUM / TOTAL BILIRUBIN / TOTAL PROTEIN / URIC ACID: tissue Plasma
# [1] = 25 mg/kg, 120 h, dose level High, time 5 day
# [2] = […], 72 h, dose 6.3 mg/Kg, dose level Low, time 3 day
# [3] = […], 120 h, dose 6.3 mg/Kg, dose level Low, time 5 day
compound,measurement,setting,value
O=P1(N(CCCl)CCCl)NCCCO1 (centres undefined) [CYCLOPHOSPHAMIDE ANHYDROUS],ABSOLUTE BASOPHIL,[1],0 CELLS/uL
same,ABSOLUTE EOSINOPHIL,[1],0 CELLS/uL
same,ABSOLUTE LYMPHOCYTE,[1],1111.67 CELLS/uL
same,ABSOLUTE MONOCYTE,[1],4.33 CELLS/uL
same,ABSOLUTE SEGMENTED NEUTROPHIL,[1],117.33 CELLS/uL
same,BASOPHIL,[1],0%
same,EOSINOPHIL,[1],0%
same,ERYTHROCYTE COUNT,[1],4.84 x10E6/uL
same,HEMATOCRIT,[1],29.43%
same,HEMOGLOBIN,[1],11.47 G/DL
same,LEUKOCYTE COUNT,[1],1.23 x10E3/uL
same,LYMPHOCYTE,[1],90.33%
same,MEAN CORPUSCULAR HEMOGLOBIN,[1],23.77 pg
same,MEAN CORPUSCULAR HEMOGLOBIN CONCENTRATION,[1],39 G/DL
same,MEAN CORPUSCULAR VOLUME,[1],60.93 fL
same,MONOCYTE,[1],0.33%
same,NEUTROPHIL,[1],9.33%
same,NUCLEATED RED BLOOD CELLS,[1],0 /100WBC
same,PLATELET COUNT,[1],645 x10E3/uL
same,ALANINE AMINOTRANSFERASE,[1],44.33 u/L
same,ALBUMIN,[1],3.8 G/DL
same,ALKALINE PHOSPHATASE,[1],227.67 u/L
same,ASPARTATE AMINOTRANSFERASE,[1],67.33 u/L
same,BLOOD UREA NITROGEN,[1],15.33 mg/dL
same,CARBON DIOXIDE,[1],31 mmol/L
same,CHLORIDE,[1],102.33 MEQ/L
same,CHOLESTEROL,[1],78.67 mg/dL
same,CREATINE PHOSPHOKINASE,[1],231 u/L
same,CREATININE,[1],0.16 mg/dL
same,GLUCOSE,[1],147.67 mg/dL
same,LACTATE DEHYDROGENASE,[1],83.33 u/L
same,LIPASE,[1],8.33 u/L
same,PHOSPHORUS,[1],9.97 mg/dL
same,POTASSIUM,[1],5.36 MEQ/L
same,SODIUM,[1],144.37 MEQ/L
same,TOTAL BILIRUBIN,[1],0.1 mg/dL
same,TOTAL PROTEIN,[1],5.37 G/DL
same,URIC ACID,[1],0.33 mg/dL
same,ABSOLUTE BASOPHIL,[2],0 CELLS/uL
same,ABSOLUTE EOSINOPHIL,[2],0 CELLS/uL
same,ABSOLUTE LYMPHOCYTE,[2],7172.67 CELLS/uL
same,ABSOLUTE MONOCYTE,[2],29.33 CELLS/uL
same,ABSOLUTE SEGMENTED NEUTROPHIL,[2],531.33 CELLS/uL
same,BASOPHIL,[2],0%
same,EOSINOPHIL,[2],0%
same,ERYTHROCYTE COUNT,[2],5.43 x10E6/uL
same,HEMATOCRIT,[2],33.63%
same,HEMOGLOBIN,[2],13.3 G/DL
same,LEUKOCYTE COUNT,[2],7.73 x10E3/uL
same,LYMPHOCYTE,[2],92.67%
same,MEAN CORPUSCULAR HEMOGLOBIN,[2],24.53 pg
same,MEAN CORPUSCULAR HEMOGLOBIN CONCENTRATION,[2],39.53 G/DL
same,MEAN CORPUSCULAR VOLUME,[2],62.03 fL
same,MONOCYTE,[2],0.33%
same,NEUTROPHIL,[2],7%
same,NUCLEATED RED BLOOD CELLS,[2],0 /100WBC
same,PLATELET COUNT,[2],1008 x10E3/uL
same,ALANINE AMINOTRANSFERASE,[2],63.67 u/L
same,ALBUMIN,[2],4.1 G/DL
same,ALKALINE PHOSPHATASE,[2],374 u/L
same,ASPARTATE AMINOTRANSFERASE,[2],82.67 u/L
same,BLOOD UREA NITROGEN,[2],14 mg/dL
same,CARBON DIOXIDE,[2],34.33 mmol/L
same,CHLORIDE,[2],99.5 MEQ/L
same,CHOLESTEROL,[2],93.33 mg/dL
same,CREATINE PHOSPHOKINASE,[2],214.67 u/L
same,CREATININE,[2],0.13 mg/dL
same,GLUCOSE,[2],141.67 mg/dL
same,LACTATE DEHYDROGENASE,[2],136 u/L
same,LIPASE,[2],12.67 u/L
same,PHOSPHORUS,[2],11.2 mg/dL
same,POTASSIUM,[2],5.83 MEQ/L
same,SODIUM,[2],145.15 MEQ/L
same,TOTAL BILIRUBIN,[2],0.23 mg/dL
same,TOTAL PROTEIN,[2],5.9 G/DL
same,URIC ACID,[2],0.6 mg/dL
same,ABSOLUTE BASOPHIL,[3],0 CELLS/uL
same,ABSOLUTE EOSINOPHIL,[3],11 CELLS/uL
same,ABSOLUTE LYMPHOCYTE,[3],3359 CELLS/uL
same,ABSOLUTE MONOCYTE,[3],20 CELLS/uL
same,ABSOLUTE SEGMENTED NEUTROPHIL,[3],610 CELLS/uL
same,BASOPHIL,[3],0%
same,EOSINOPHIL,[3],0.33%
same,ERYTHROCYTE COUNT,[3],5.53 x10E6/uL
same,HEMATOCRIT,[3],34.97%
same,HEMOGLOBIN,[3],13.43 G/DL
same,LEUKOCYTE COUNT,[3],4 x10E3/uL
same,LYMPHOCYTE,[3],84%
same,MEAN CORPUSCULAR HEMOGLOBIN,[3],24.37 pg
same,MEAN CORPUSCULAR HEMOGLOBIN CONCENTRATION,[3],38.43 G/DL
same,MEAN CORPUSCULAR VOLUME,[3],63.33 fL
same,MONOCYTE,[3],0.67%
same,NEUTROPHIL,[3],15%
same,NUCLEATED RED BLOOD CELLS,[3],0 /100WBC
same,PLATELET COUNT,[3],1266.67 x10E3/uL
same,ALANINE AMINOTRANSFERASE,[3],56.33 u/L
same,ALBUMIN,[3],4.03 G/DL
same,ALKALINE PHOSPHATASE,[3],346.33 u/L
same,ASPARTATE AMINOTRANSFERASE,[3],83.33 u/L
same,BLOOD UREA NITROGEN,[3],14 mg/dL
same,CARBON DIOXIDE,[3],31.33 mmol/L
same,CHLORIDE,[3],99.5 MEQ/L
same,CHOLESTEROL,[3],65.67 mg/dL
same,CREATINE PHOSPHOKINASE,[3],216.33 u/L
same,CREATININE,[3],0.2 mg/dL
same,GLUCOSE,[3],137.33 mg/dL
same,LACTATE DEHYDROGENASE,[3],136 u/L
same,LIPASE,[3],10.33 u/L
same,PHOSPHORUS,[3],10.6 mg/dL
same,POTASSIUM,[3],5.74 MEQ/L
same,SODIUM,[3],145.9 MEQ/L
same,TOTAL BILIRUBIN,[3],0.17 mg/dL
same,TOTAL PROTEIN,[3],5.9 G/DL
same,URIC ACID,[3],0.53 mg/dL
